Test results as given in patent US4559323A, “A41030 Antibiotics” (Eli Lilly and Company, priority 1984, dated 1985).
Values after ≈ are worked out from the molar mass of the structure shown. Like-named read-outs stand apart in the source and are kept apart here.

Key:
[1] = mice, administered intraperitoneally
[2] = system: Haemophilus parainfluenzae; assay: Agar-dilution MIC; type: cell-based; conditions: Table 18, 24 hours
Propionibacterium acnes = assay: Agar-dilution MIC (anaerobes); type: cell-based
From the text: Antibiotic A41030 factors A, B and C have also been tested and found to be active against a genus of anaerobic bacteria identified as Propionibacterium acnes.

Escherichia coli = assay: Agar-dilution MIC; type: cell-based; conditions: Table 17, 24 hours
Staphylococcus aureus = assay: Agar-dilution MIC; type: cell-based
[3] = system: Peptococcus asaccharolyticus; assay: Agar-dilution MIC (anaerobes); type: cell-based; conditions: Table 14; Peptococcus asaccharolyticus 1302
Bacteroides fragilis = assay: Agar-dilution MIC (anaerobes); type: cell-based
From the text: (§1) The agar-dilution procedure described by the International Collaborative study (ICS) group was used to determine the minimum inhibitory concentrations (MIC's).

Pc. magnus = assay: Agar-dilution MIC (anaerobes); type: cell-based, Peptococcus magnus; conditions: Table 15
Method: The MIC values were determined by the agar-dilution method, and are recorded in Table 15, which follows.

Streptococcus pyogenes = assay: Agar-dilution MIC; type: cell-based; conditions: 24 hours, Streptococcus pyogenes C203
From the text: as §1

Streptococcus pneumoniae = assay: Agar-dilution MIC; type: cell-based; conditions: 24 hours
From the text: as §1

[4] = system: Staphylococcus epidermidis; assay: Agar-dilution MIC; type: cell-based; conditions: 24 hours
From the text: as §1

[5] = system: Streptococcus sp. (Group D); assay: Agar-dilution MIC; type: cell-based; conditions: 24 hours
From the text: as §1

Citrobacter freundii = conditions: Table 17; 24 hours; Citrobacter freundii CF17
From the text: as §1

Enterobacter cloacae = assay: Agar-dilution MIC; type: cell-based; conditions: Table 17, 24 hours
Enterobacter aerogenes = assay: Agar-dilution MIC; type: cell-based; conditions: Table 17; 24 hours; Enterobacter aerogenes C32
[6] = system: Streptococcus sp. Group B; assay: Agar-dilution MIC; type: cell-based; conditions: Table 18, 24 hours
From the text: (§2) The in vitro activity of antibiotic A41030 factors A and B against a number of representative aerobic, gram-positive bacteria, including Streptococcus sp. Group D, has been determined using a standard agar-dilution assay.

[7] = system: Streptococcus sp. ATCC 10389; assay: Agar-dilution MIC; type: cell-based; conditions: Table 18, 24 hours
From the text: as §2

Serratia marcescens = assay: Agar-dilution MIC; type: cell-based; conditions: Table 17; 24 hours; Serratia marcescens X99

N[C@H]1C(=O)N[C@@H]2Cc3ccc(c(Cl)c3)Oc3cc4cc(c3O)Oc3ccc(cc3Cl)[C@@H](O)[C@@H]3NC(=O)C(NC(=O)[C@@H]4NC(=O)[C@@H](NC2=O)c2cc(O)cc(c2)Oc2cc1ccc2O)c1ccc(O)c(c1)-c1c(O)cc(O)cc1[C@@H](C(=O)O)NC3=O [A41030 factor B]
LD50 [1]: > 300 mg/kg | acute toxicity [1]: > 300 mg/kg | MIC ([2]; Haemophilus parainfluenzae 7901): 16 µg/mL (≈ 13.3 µM) | MIC ([2]; Haemophilus parainfluenzae 9796): 16 µg/mL (≈ 13.3 µM) | MIC (Propionibacterium acnes; Table 13, 24-hour, P. acnes 44): 0.06 µg/mL (≈ 0.05 µM) | MIC (Propionibacterium acnes; Table 13, 24-hour, P. acnes 79): 0.06 µg/mL (≈ 0.05 µM) | MIC (Propionibacterium acnes; Table 13, 24-hour, P. acnes 101): 0.06 µg/mL (≈ 0.05 µM) | MIC (Propionibacterium acnes; Table 13, 24-hour, P. acnes 103): 0.06 µg/mL (≈ 0.05 µM) | MIC (Propionibacterium acnes; Table 13, 24-hour, P. acnes 104): 0.25 µg/mL (≈ 0.209 µM) | MIC (Propionibacterium acnes; Table 13, 24-hour, P. acnes 105): 0.06 µg/mL (≈ 0.05 µM) | MIC (Propionibacterium acnes; Table 13, 24-hour, P. acnes 106): 0.06 µg/mL (≈ 0.05 µM) | MIC (Propionibacterium acnes; Table 13, 24-hour, P. acnes 107): 0.06 µg/mL (≈ 0.05 µM) | MIC (Propionibacterium acnes; Table 13, 24-hour, P. acnes 5170): ≤ 0.03 µg/mL | MIC (Propionibacterium acnes; Table 13, 24-hour, P. acnes 5176): 0.06 µg/mL (≈ 0.05 µM) | MIC (Propionibacterium acnes; Table 13, 24-hour, P. acnes 5187): 0.06 µg/mL (≈ 0.05 µM) | MIC (Propionibacterium acnes; Table 13, 24-hour, P. acnes 5191): 0.06 µg/mL (≈ 0.05 µM) | MIC (Propionibacterium acnes; Table 13, 24-hour, P. acnes 5197): 0.06 µg/mL (≈ 0.05 µM) | MIC (Propionibacterium acnes; Table 13, 24-hour, P. acnes 5226): 0.5 µg/mL (≈ 0.417 µM) | MIC (Propionibacterium acnes; Table 13, 24-hour, P. acnes 5227): 0.06 µg/mL (≈ 0.05 µM) | MIC (Propionibacterium acnes; Table 13, 24-hour, P. acnes 5228): 0.5 µg/mL (≈ 0.417 µM) | MIC (Propionibacterium acnes; Table 13, 24-hour, P. acnes 5229): 0.25 µg/mL (≈ 0.209 µM) | MIC (Propionibacterium acnes; Table 13, 24-hour, P. acnes 5246): 0.125 µg/mL (≈ 0.104 µM) | MIC (Propionibacterium acnes; Table 13, 24-hour, P. acnes 5292): 0.06 µg/mL (≈ 0.05 µM) | MIC (Propionibacterium acnes; Table 14, Propionibacterium acnes 79): 16 µg/mL (≈ 13.3 µM) | MIC (Escherichia coli; Escherichia coli EC14): 128 µg/mL (≈ 107 µM) | MIC (Escherichia coli; Escherichia coli N10): 128 µg/mL (≈ 107 µM) | MIC (Escherichia coli; Escherichia coli TEM): 128 µg/mL (≈ 107 µM) | MIC (Staphylococcus aureus): 0.125 µg/mL (≈ 0.104 µM) | MIC (Staphylococcus aureus; Table 17, 24 hours, Staphylococcus aureus S13E): 0.125 µg/mL (≈ 0.104 µM) | MIC (Staphylococcus aureus; Table 17, 24 hours, Staphylococcus aureus X400): 0.25 µg/mL (≈ 0.209 µM) | MIC (Staphylococcus aureus; Table 18, 24 hours, Staphylococcus aureus 3055): 0.06 µg/mL (≈ 0.05 µM) | MIC (Staphylococcus aureus; Table 18, 24 hours, Staphylococcus aureus V138): 0.06 µg/mL (≈ 0.05 µM) | MIC [3]: ≤ 0.25 µg/mL | MIC (Bacteroides fragilis; Table 12, 24-hour, B. fragilis 2): 32 µg/mL (≈ 26.7 µM) | MIC (Bacteroides fragilis; Table 12, 24-hour, B. fragilis 9): 32 µg/mL (≈ 26.7 µM) | MIC (Bacteroides fragilis; Table 12, 24-hour, B. fragilis 103): 32 µg/mL (≈ 26.7 µM) | MIC (Bacteroides fragilis; Table 12, 24-hour, B. fragilis 104): 32 µg/mL (≈ 26.7 µM) | MIC (Bacteroides fragilis; Table 12, 24-hour, B. fragilis 106): 32 µg/mL (≈ 26.7 µM) | MIC (Bacteroides fragilis; Table 12, 24-hour, B. fragilis 107): 32 µg/mL (≈ 26.7 µM) | MIC (Bacteroides fragilis; Table 12, 24-hour, B. fragilis 108): 32 µg/mL (≈ 26.7 µM) | MIC (Bacteroides fragilis; Table 12, 24-hour, B. fragilis 110): 64 µg/mL (≈ 53.4 µM) | MIC (Bacteroides fragilis; Table 12, 24-hour, B. fragilis 111): 32 µg/mL (≈ 26.7 µM) | MIC (Bacteroides fragilis; Table 12, 24-hour, B. fragilis 112): 32 µg/mL (≈ 26.7 µM) | MIC (Bacteroides fragilis; Table 12, 24-hour, B. fragilis 113): 32 µg/mL (≈ 26.7 µM) | MIC (Bacteroides fragilis; Table 12, 24-hour, B. fragilis 1451): 64 µg/mL (≈ 53.4 µM) | MIC (Bacteroides fragilis; Table 12, 24-hour, B. fragilis 1470): 64 µg/mL (≈ 53.4 µM) | MIC (Bacteroides fragilis; Table 12, 24-hour, B. fragilis 1877): 32 µg/mL (≈ 26.7 µM) | MIC (Bacteroides fragilis; Table 12, 24-hour, B. fragilis 9032): 32 µg/mL (≈ 26.7 µM) | MIC (Bacteroides fragilis; Table 14, Bacteroides fragilis 111): 64 µg/mL (≈ 53.4 µM) | MIC (Bacteroides fragilis; Table 14, Bacteroides fragilis 1877): 32 µg/mL (≈ 26.7 µM) | MIC (Bacteroides fragilis; Table 14, Bacteroides fragilis 1936B): 32 µg/mL (≈ 26.7 µM) | MIC (Pc. magnus; Pc. magnus 1401): 0.125 µg/mL (≈ 0.104 µM) | MIC (Pc. magnus; Pc. magnus 1421): 0.125 µg/mL (≈ 0.104 µM) | MIC (Pc. magnus; Pc. magnus 1477): 0.25 µg/mL (≈ 0.209 µM) | MIC (Streptococcus pyogenes; Table 17): 0.25 µg/mL (≈ 0.209 µM) | MIC (Streptococcus pyogenes; Table 18): 0.125 µg/mL (≈ 0.104 µM) | MIC (Streptococcus pneumoniae; Table 17, Streptococcus pneumoniae Park I): 0.5 µg/mL (≈ 0.417 µM) | MIC (Streptococcus pneumoniae; Table 18, Streptococcus pneumoniae B1-438): 0.5 µg/mL (≈ 0.417 µM) | MIC (Streptococcus pneumoniae; Table 18, Streptococcus pneumoniae Park I): 0.125 µg/mL (≈ 0.104 µM) | MIC ([4]; Table 17, Staphylococcus epidermidis EPI1): 0.125 µg/mL (≈ 0.104 µM) | MIC ([4]; Table 17, Staphylococcus epidermidis EPI2): 0.5 µg/mL (≈ 0.417 µM) | MIC ([4]; Table 18, Staphylococcus epidermidis 219): 0.03 µg/mL (≈ 0.025 µM) | MIC ([4]; Table 18, Staphylococcus epidermidis 222): 0.125 µg/mL (≈ 0.104 µM) | MIC ([4]; Table 18, Staphylococcus epidermidis 269): 0.03 µg/mL (≈ 0.025 µM) | MIC ([4]; Table 18, Staphylococcus epidermidis 270): 0.06 µg/mL (≈ 0.05 µM) | MIC ([4]; Table 18, Staphylococcus epidermidis 285): 0.03 µg/mL (≈ 0.025 µM) | MIC ([5]; Table 17, Streptococcus sp. Group D 9960): 1 µg/mL (≈ 0.834 µM) | MIC ([5]; Table 17, Streptococcus sp. Group D X66): 1 µg/mL (≈ 0.834 µM) | MIC ([5]; Table 18, Streptococcus sp. Group D 2041): 0.5 µg/mL (≈ 0.417 µM) | MIC ([5]; Table 18, Streptococcus sp. Group D 2058): 0.5 µg/mL (≈ 0.417 µM) | MIC ([5]; Table 18, Streptococcus sp. Group D 8043): 0.25 µg/mL (≈ 0.209 µM) | MIC ([5]; Table 18, Streptococcus sp. Group D 9901): 1 µg/mL (≈ 0.834 µM) | MIC ([5]; Table 18, Streptococcus sp. Group D 9960): 0.5 µg/mL (≈ 0.417 µM) | MIC ([5]; Table 18, Streptococcus sp. Group D 12253F): 0.5 µg/mL (≈ 0.417 µM) | MIC ([5]; Table 18, Streptococcus sp. Group D Mx161): 0.25 µg/mL (≈ 0.209 µM) | MIC ([5]; Table 18, Streptococcus sp. Group D X66): 0.25 µg/mL (≈ 0.209 µM) | MIC (Citrobacter freundii): 128 µg/mL (≈ 107 µM) | MIC (Enterobacter cloacae; Enterobacter cloacae 265A): 128 µg/mL (≈ 107 µM) | MIC (Enterobacter cloacae; Enterobacter cloacae EB5): 128 µg/mL (≈ 107 µM) | MIC (Enterobacter aerogenes): 64 µg/mL (≈ 53.4 µM) | MIC ([6]; Streptococcus sp. Group B 5): 1 µg/mL (≈ 0.834 µM) | MIC ([6]; Streptococcus sp. Group B 14): 0.125 µg/mL (≈ 0.104 µM) | MIC [7]: 0.25 µg/mL (≈ 0.209 µM) | MIC (Serratia marcescens): 128 µg/mL (≈ 107 µM)
